Where two headings read alike, the source gives them in different places.
Key:
[1] = In vitro evaluation of filtering parameters of formulations on PMMA plates (Diffey and Robson); settings: for SPF / UVA/UVB / UVAPF / λc (critical wavelength): 3% (w/w) in O/W formulation, PMMA plates
From the text: It was decided to use a standard formulation oil in water (O/W).
In vitro approaches consist in applying a thin film of sunscreen product on an artificial substrate and test, via spectrophotometric measures, the amount of UV radiation passing through the film. Several different artificial substrates are available for this type of analysis; the substrate should be as closed as possible to the physical characteristics of the skin. Among the substrates available for these purposes, the substrate used in this study to analyse the sunscreen products were PMMA plates. This substrate is easily handled and can be supplied with a reproducible roughness. WW5 PMMA plates have been purchased from Schonberg GmbH (Munich, Germany). The plates, used in this study, have an area of 25 cm^2 and standardized […] roughness. Transmittance and absorbance measurements were carried out by a SHIMAZDU UV-2600 provided of integrating sphere ISR 2600 60 mm and coupled with a SPF determination software and a PMMA plate with approximately 15 μL of glycerin served as reference.
In order to evaluate possible activity as sun filters and antioxidants, suitable in the development of novel class of dualistic sunscreens, the synthesized molecules were included at the concentration of 3% (w/w) in a topical formulation. To this end standard oil in water (O/W) formulation was devised, taking into account the absence of any UV filtering and/or antioxidant molecule, in order to obtain a reference formulation. It was not possible to analyze compound 7 in the formulation because of high instability (phase separation induced by 7). Formulations containing the active ingredients were tested for their SPF efficacy by the in vitro method derived from Diffey and Robson[32], in comparison with the same formulation containing the reference PBSA.
This method is based on the measure of spectral transmission of ultraviolet radiation, with and without the sunscreen applied, through an irregular substrate that simulates the skin surface and permits transmission of UV radiation. Although with some limitation, the test is used to predict SPF in vivo and to screen the filtering activity of new molecules that cannot be tested by in vivo because of lacking of more data concerning safety. The critical wavelength (λc) for the test product is defined as that wavelength where the area under the absorbance spectrum for the irradiated product from 290 nm to λc is 90% of the integral of the absorbance spectrum from 290 nm to 400 nm. Critical wavelength value of greater than 370 nm is necessary, in order to satisfy requirements for broad-spectrum UVB/UVA protection and associated labeling. Polymethylmethacrylate plates (PMMA) with a specific roughness were a satisfactory substrate for this method, because they are UV-transparent, nonfluorescent, photostable and inert to all potential sunscreen formulation ingredients. Table 3 lists the data obtained for the model formulation containing the synthesized compounds. These parameters are necessary to evaluate whether a sunscreen fulfills the requirements for efficacy, and they are SPF, UVA protection factor (UVAPF), UVA/UVB ratio and critical wavelength.
A set of model formulations was prepared: an oil-in-water emulsion (O/W), without sunscreen molecules (Ref. A, Figure 5), prepared as reference formulation; two formulations containing PBSA or oxisol (12) at 3% were prepared (Ref. C and B, respectively, Figure 5), in order to evaluate the filter properties of oxisol (12). Moreover, as stated earlier, SPF booster properties were assayed on other four formulations including a mix of filters with a theoretical SPF value of 15 and 30, adding 3% of oxisol (12) or PBSA (Ref. E, F, G, H, Figure 5). […]

NCTC-2544 cells [2] = tested on: NCTC-2544 cells
NCTC-2544 cells [3] = assay: Cytotoxicity, MTT test, 72 h; settings: read-out: IC50 cytotoxicity; NCTC-2544 human keratinocytes, 72 h, MTT
[4] = type: physicochemical
Protocol: (§1) HPLC analysis was performed using an Agilent 1100 Series HPLC System equipped with a G1315A DAD, and with a Hydro-RP C18 Synergi 80 Å column (4.6 × 150 mm, 4 μm) from Phenomenex, maintained at 25 °C during all the time of the analysis. The mobile phase consisted of water (0.01 M H3PO4) (solvent A) and acetonitrile (0.01 M H3PO4) (solvent B). • PBSA and 3: the determination was carried out in isocratic condition, A: 91%/B: 9%. Separation was monitored with absorbance detection at λmax of the molecule ±8 nm. The flow rate was 1.0 mL/min. • […]: the determination was carried out in isocratic condition, A: 84%/B: 16%. Separation was monitored with absorbance detection at λmax of the molecule ±8 nm. The flow rate was 1.0 mL/min
Molecules 3 and 12 were challenged in accelerated stability studies against the parent compound. The formulations were submitted to accelerated aging at 40 °C and analyzed at specific intervals, with HPLC.

[5] = Photostability of formulations under solar simulator, HPLC; type: physicochemical; settings: 3% formulation; for Residual product (photostability): 2 mg/cm^2, solar simulator 1 h, HPLC
Protocol: as §1
The solar simulator emission was maintained at 500 W/m^2. A portion of cosmetic formulation containing the sunscreen molecule (3%, w/w) was transferred onto the bottom of a beaker to gain a cosmetic mount of 2 mg/cm^2 and then was irradiated for 1 h with the solar simulator. After irradiation the beaker was removed and its content quantitatively transferred into a 50 mL calibrated flask with methanol and the remaining sunscreen concentration was determined by HPLC as described above. All samples were protected from light both before and after irradiation, the degree of photodegradation was evaluated by comparing the areas of the irradiated samples, with those of the unirradiated preparations.
Stability and photostability tests were performed only on compounds that as provided with the best antioxidant capacity together with a good photoprotection activity (i.e. 3, and 12). At first, the effective concentration of filtering molecules was verified in the formulation by HPLC. Samples of the formulations (2 mg/cm^2) were spread on a PMMA plate, for each compound including PBSA, and placed under a solar simulator for one hour before repeating HPLC analysis.

IC50 (NCTC-2544 cells [2]) [µM] | % of remaining compounds T0 [4] [%] | % of remaining compounds T7 [4] | % of remaining compounds T14 [4] | % of remaining compounds T21 [4] | % of remaining compounds T28 [4] | % of remaining compounds T35 [4] | % of remaining compounds T49 [4] | % of remaining compounds T63 [4] | Residual product (photostability) [5] | degradation rate (photostability) ([5]; solar simulator 1 h) | Molecule | SPF [1] | UVA/UVB [1] | UVAPF [1] | λc (critical wavelength) [1] [nm] | IC50 (NCTC-2544 cells [3]) [µM] | SPF of emulsion (Figure 5) ([1]; O/W emulsion with 3% of the molecule only)
> 50 | – | – | – | – | – | – | – | – | – | – | 2-(2,4-Dihydroxy-phenyl)-1H-benzimidazole [Compound 9] | 3.57 ± 0.23 | 1.10 ± 0.05 | 1.89 ± 0.05 | 380 | – | –
– | – | – | – | – | – | – | – | – | – | – | 2-(2-Hydroxy-phenyl)-1H-benzimidazole [Compound 10] | 1.96 ± 0.14 | 1.01 ± 0.02 | 1.06 ± 0.08 | 378 | > 50 | –
– | – | – | – | – | – | – | – | – | – | – | O=S(=O)(O)c1ccc2[nH]c(-c3ccc(O)cc3)nc2c1 [Compound 2, 2-(4-Hydroxy-phenyl)-1H-benzimidazole-5-sulfonic acid] | 4.74 ± 0.15 | 0.51 ± 0.01 | 1.36 ± 0.07 | 346 | – | –
– | 100 | 96,7% | 89,6% | 86,3% | 73,4% | 73,4% | 67,6% | 64,6% | 94.9% ± 0.8% | – | O=S(=O)(O)c1ccc2[nH]c(-c3ccc(O)c(O)c3)nc2c1 [Compound 3, 2-(3,4-Dihydroxy-phenyl)-1H-benzimidazole-5-sulfonic acid] | 9.83 ± 0.64 | 0.74 ± 0.04 | 3.63 ± 0.23 | 358 | – | –
– | – | – | – | – | – | – | – | – | – | – | O=S(=O)(O)c1ccc2[nH]c(-c3ccccc3O)nc2c1 [Compound 4, 2-(2-Hydroxy-phenyl)-1H-benzimidazole-5-sulfonic acid] | 2.22 ± 0.13 | 0.96 ± 0.01 | 1.06 ± 0.07 | 355 | – | –
– | – | – | – | – | – | – | – | – | – | – | O=S(=O)(O)c1ccc2[nH]c(-c3ccc(O)cc3O)nc2c1 [Compound 5, 2-(2,4-Dihydroxy-phenyl)-1H-benzimidazole-5-sulfonic acid] | 2.18 ± 0.14 | 1.13 ± 0.01 | 1.21 ± 0.04 | 370 | – | –
– | – | – | – | – | – | – | – | – | – | – | O=S(=O)(O)c1ccc2[nH]c(-c3ccc(O)c(O)c3O)nc2c1 [Compound 6, 2-(2,3,4-Trihydroxy-phenyl)-1H-benzimidazole-5-sulfonic acid] | 5.99 ± 0.12 | 0.89 ± 0.03 | 2.72 ± 0.08 | 383 | – | –
– | – | – | – | – | – | – | – | – | – | – | Oc1ccc(-c2nc3ccccc3[nH]2)cc1O [Compound 8, 2-(3,4-Dihydroxy-phenyl)-1H-benzimidazole] | 5.20 ± 0.20 | 0.78 ± 0.02 | 1.90 ± 0.09 | 368 | – | –
– | – | – | – | – | – | – | – | – | – | – | Oc1ccc(-c2nc3ccccc3[nH]2)c(O)c1O [Compound 11, 2-(2,3,4-Trihydroxy-phenyl)-1H-benzimidazole] | 2.85 ± 0.22 | 0.90 ± 0.01 | 1.35 ± 0.1 | 381 | – | –
– | 100 | 95,4% | 95,4% | 95,1% | 92,8% | 86,9% | 86,9% | 86,8% | 98.4% ± 0.9% | less than 2% | O=C(O)c1ccc2[nH]c(-c3ccc(O)c(O)c3)nc2c1 [Compound 12, 2-(3,4-Dihydroxy-phenyl)-1H-benzimidazole-5-carboxylic acid] | 2.21 ± 0.17 | 1.00 ± 0.04 | 1.88 ± 0.12 | 370 | – | does not present an appreciable value of SPF
– | – | – | – | – | – | – | – | – | – | – | O=C(O)c1ccc2[nH]c(-c3ccc(O)cc3O)nc2c1 [Compound 13, 2-(2,4-Dihydroxy-phenyl)-1H-benzimidazole-5-carboxylic acid] | 2.85 ± 0.17 | 1.27 ± 0.02 | 1.58 ± 0.10 | 368 | – | –
– | – | – | – | – | – | – | – | – | – | – | O=C(O)c1ccc2[nH]c(-c3ccc(O)cc3)nc2c1 [Compound 14, 2-(4-Hydroxy-phenyl)-1H-benzimidazole-5-carboxylic acid] | 6.01 ± 0.31 | 0.70 ± 0.05 | 2.04 ± 0.11 | 350 | – | –
– | – | – | – | – | – | – | – | – | – | – | O=C(O)c1ccc2[nH]c(-c3ccc(O)c(O)c3O)nc2c1 [Compound 15, 2-(2,3,4-Trihydroxy-phenyl)-1H-benzimidazole-5-carboxylic acid] | 3.69 ± 0.24 | 0.96 ± 0.08 | 1.87 ± 0.08 | 382 | – | –

Molecule | IC50 (NCTC-2544 cells [2]) [µM] | % of remaining compounds T0 [4] [%] | % of remaining compounds T7 [4] | % of remaining compounds T14 [4] | % of remaining compounds T21 [4] | % of remaining compounds T28 [4] | % of remaining compounds T35 [4] | % of remaining compounds T49 [4] | % of remaining compounds T63 [4] | Residual product (photostability) [5] | degradation rate (photostability) ([5]; solar simulator 1 h) | SPF [1] | UVA/UVB [1] | UVAPF [1] | λc (critical wavelength) [1] [nm] | IC50 (NCTC-2544 cells [3]) [µM] | SPF of emulsion (Figure 5) ([1]; O/W emulsion with 3% of the molecule only)
O=S(=O)(O)c1ccc2[nH]c(-c3ccccc3)nc2c1 [PBSA, 2-phenyl-1H-benzimidazole-5-sulfonic acid, reference compound] | – | 100 | 99,4% | 98,1% | 97,2% | 96,4% | 94% | 92% | 90% | 96.7% ± 1.8% | – | 4.56 ± 1.09 | 0.26 ± 0.05 | 1.04 ± 0.06 | 333 | – | –

From article PMC6010047, “Design, synthesis and biological evaluation of novel hydroxy-phenyl-1H-benzimidazoles as radical scavengers and UV-protective agents” (Journal of Enzyme Inhibition and Medicinal Chemistry, 2017)
